Data set [1] is described as follows: Cytotoxicity against human HCT116 cells assessed as growth inhibition after 72 hrs by MTT assay. The note with it: HCT-116, 72 h. Format: functional, cell-based.
Data set [2] is described as follows: Cytotoxicity against human Caco2 cells assessed as growth inhibition after 72 hrs by MTT assay. Format: functional, cell-based. The note with it: Caco-2, 72 h. A general note: Formazan colour is commonly taken as a measure of viable cells.
Data set [3] concerns HepG2. Briefly: Cytotoxicity against human HepG2 cells assessed as growth inhibition after 72 hrs by MTT assay. Format: functional, cell-based. The note with it: HepG2, 72 h.
A short description of data set [4]: Cytotoxicity against human […] cells assessed as growth inhibition after 72 hrs by MTT assay. Format: functional, cell-based.
A short description of data set [5]: Cytotoxicity against human H460 cells assessed as growth inhibition after 72 hrs by MTT assay. The note with it: NCI-H460, 72 h. Format: functional, cell-based.
Data set [6] in a line: Cytotoxicity against human HELF cells assessed as growth inhibition after 72 hrs by MTT assay. Format: cell-based.
Data set [7] relates to HCT-116. As to the kind of experiment: Cytotoxicity against human HCT116 cells assessed as cell viability after 24 to 72 hrs by MTT assay. Format: functional, cell-based.
Data set [8] relates to Caco-2. As to the kind of experiment: Cytotoxicity against human Caco2 cells assessed as cell viability after 24 to 72 hrs by MTT assay. Format: functional, cell-based.
For data set [9], the system named is HepG2. As to the kind of experiment: Cytotoxicity against human HepG2 cells assessed as cell viability after 24 to 72 hrs by MTT assay. Format: functional, cell-based.
The subject of data set [10] is BGC832. As to the kind of experiment: Cytotoxicity against human […] cells assessed as cell viability after 24 to 72 hrs by MTT assay. Format: functional, cell-based.
The subject of data set [11] is NCI-H460. As to the kind of experiment: Cytotoxicity against human H460 cells assessed as cell viability after 24 to 72 hrs by MTT assay. Format: functional, cell-based.
In data set [12] the test system is HCT-116. Briefly: Cytotoxicity against human HCT116 cells assessed as cell viability at 1.2 to 100 uM by MTT assay. Format: functional, cell-based. The note with it: TDE = time-dependent effect.
Data set [13] has as its system Caco-2. As to the kind of experiment: Cytotoxicity against human Caco2 cells assessed as cell viability at 1.2 to 100 uM by MTT assay. Format: functional, cell-based. The note with it: TDE = time-dependent effect.
Data set [14] has as its system HepG2. Briefly: Cytotoxicity against human HepG2 cells assessed as cell viability at 1.2 to 100 uM by MTT assay. Format: functional, cell-based. The note with it: TDE = time-dependent effect.
Data set [15] deals with BGC832. Briefly: Cytotoxicity against human […] cells assessed as cell viability at 1.2 to 100 uM by MTT assay. The note with it: TDE = time-dependent effect. Format: functional, cell-based.
Data set [16] relates to NCI-H460. Briefly: Cytotoxicity against human H460 cells assessed as cell viability at 1.2 to 100 uM by MTT assay. Format: functional, cell-based. The note with it: TDE = time-dependent effect.
The test system of data set [17] is Candida albicans. As to the kind of experiment: Antimicrobial activity against Candida albicans by micro dilution method. Format: functional, organism-based.
Data set [18] relates to Aspergillus niger. As to the kind of experiment: Antimicrobial activity against Aspergillus niger by micro dilution method. Format: functional, organism-based.
Data set [19] deals with Bacillus subtilis. As to the kind of experiment: Antimicrobial activity against Bacillus subtilis after 24 hrs using MTT reagent by micro dilution method. Format: functional.
The test system of data set [20] is Staphylococcus aureus. As to the kind of experiment: Antimicrobial activity against Staphylococcus aureus after 24 hrs using MTT reagent by micro dilution method. Format: functional, organism-based.
The test system of data set [21] is Escherichia coli. As to the kind of experiment: Antimicrobial activity against Escherichia coli after 24 hrs using MTT reagent by micro dilution method. Format: functional, organism-based.
Data set [22] in a line: Acute toxicity in ip dosed mouse. Format: organism-based. The note with it: in vivo.

≈ marks a conversion by molar mass, not a printed value. Calls of active or inactive are those of the source. Bounds are passed on as bounds.

Consider `CCC/C=C/CC1CC(O)[C@@H](O)[C@@H]2/C(C)=C/[C@H]3C=C[C@H]4O[C@H]4[C@@H]3/C(C)=C/C=C\[C@@H]2C(=O)N1` (some centres not stated), for which the IC50 amounted to 8.03 µM in data set [1] (read-out: IC50); 15 µM in data set [2]; 15 µM in data set [3]; 13.1 µM in data set [4]; 3.76 µM in [5]; 46.5 µM in data set [6]. The Activity result in data set [7] is “Dose-dependent effect”; in [8], “Dose-dependent effect”; in [9], “Dose-dependent effect”; in data set [10], “Dose-dependent effect”; in data set [11], “Dose-dependent effect”; in [12], “tde”. Further, the Activity entry in data set [13], in data set [14], in data set [15] and in data set [16] was “tde” throughout. The outcome in [17], in data set [18], in data set [20] and in [21] was inactive. Inhibition of growth in [19] (MIC) required 43.9 µg/mL (≈ 99.9 µM).
Turning to `COc1cccc2c1C(=O)c1c(O)c3c(c(O)c1C2=O)C[C@@](O)(C(=O)CO)C[C@@H]3O[C@H]1C[C@H](N)[C@H](O)[C@H](C)O1` [DOXORUBICIN], the half-inhibitory concentration (IC50) worked out at 0.74 µM in data set [1]; 0.96 µM in data set [2]; 1.48 µM in [4]; 0.98 µM in data set [5]; 7.31 µM in [6].
Compound `CCCCCCC1CC(=O)CCCC(O)CC(=O)C2=C(O)C(OC3CC(OC)C(O)C(C)O3)CC2\C=C(C)/C=C/C=C/C(=O)N1` (configuration not stated) displayed a median lethal dose (LD50) in data set [22] above 100 mg/kg.

As usually defined, the IC50 is the concentration needed to halve the response being measured. In general, MIC refers to the smallest concentration in the dilution series that meets the test's criterion for growth inhibition. A high value points to a need for much substance. A word on the LD50: it is the dose at which mortality reaches 50%. Lower therefore signals greater toxicity.

For the origin of these results see ChEMBL document CHEMBL3779773, “A unique macrolactam derivative via a [4+6]-cycloaddition from Streptomyces niveus” (Bioorg Med Chem Lett, 2016).
